The target in data set [1] is T1, TGF-β R1 ALK5 (Homo sapiens, UniProt P36897).
T1 construct: purchased Invitrogen PV5837
T1 sequence (P36897 34-503): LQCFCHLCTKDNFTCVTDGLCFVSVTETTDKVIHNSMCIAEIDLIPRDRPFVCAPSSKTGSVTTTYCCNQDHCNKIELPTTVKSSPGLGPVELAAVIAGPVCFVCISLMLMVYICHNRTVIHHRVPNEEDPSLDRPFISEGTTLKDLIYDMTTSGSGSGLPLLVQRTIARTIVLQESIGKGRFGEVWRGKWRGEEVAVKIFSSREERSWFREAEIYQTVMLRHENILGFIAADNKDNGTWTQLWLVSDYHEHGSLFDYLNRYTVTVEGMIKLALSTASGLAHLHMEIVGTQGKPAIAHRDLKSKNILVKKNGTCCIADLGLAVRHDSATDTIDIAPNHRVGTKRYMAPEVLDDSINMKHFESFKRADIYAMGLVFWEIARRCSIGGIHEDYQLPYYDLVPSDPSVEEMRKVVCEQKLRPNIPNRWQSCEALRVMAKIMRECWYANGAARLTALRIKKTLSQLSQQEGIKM
The data set is described as follows: In vitro inhibition of ALK5 (LanthaScreen activity assay, TR-FRET). The class given is biochemical.

Data set [2] addresses T2, cellular TGF-β R1 ALK5 (Homo sapiens, UniProt P36897).
T2 construct: host or cells: CellSensor SBE-bla HEK 293T
T2 sequence (P36897 34-503): T1 sequence (P36897 34-503)
The experiment in a line: Cellular inhibition of ALK5 (CellSensor SBE-bla HEK 293T beta-lactamase reporter). The class given is cell-based. The following applies: cellular inhibition of ALK5, SBE-bla HEK 293T cells, TGFb-1 stimulated 5 hours; average where measured in multiple experiments. The procedure, abridged:
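pIC50 derives from non-linear fitting of percent inhibition of the 460/530 nm CCF4-AM emission ratio, relative to DMSO+TGF-β wells. HEK 293T SBE-bla cells received compound (0.5% DMSO) for 1 h, TGFb-1 (100 ng/mL stock) for 5 h at 37 °C, then substrate 2 h at RT.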

Structures can show the parent of a compound that is named as a salt.

The compound `Cc1ccc(F)c(-c2cc(Nc3ccnc4cn(C)nc34)c(C)cn2)n1` [Example 123, N-(3′-fluoro-5,6′-dimethyl-2,2′-bipyridin-4-yl)-2-methyl-2H-pyrazolo[4,3-b]pyridin-7-amine] had a melting point of 102.9 to 103 °C. In data set [1], the midpoint of inhibition, the IC50, lay at 25.1 nM. The compound also gave an IC50 in data set [2] of 79.4 nM.

In the case of `CCNC(=O)n1ncc2nccc(Nc3cc(C)nc(-c4cc(Cl)ccc4F)c3)c21` (as salt: TFA) [Example 59, 7-(2-(5-chloro-2-fluorophenyl)-6-methylpyridin-4-ylamino)-N-ethyl-1H-pyrazolo[4,3-b]pyridine-1-carboxamide], the melting point is 245 °C.

`Cc1cnc(-c2cc(Cl)ccc2F)cc1Nc1ccnc2cnn(C(=O)NC(C)C)c12` (as salt: TFA) [Example 54, 7-(2-(5-chloro-2-fluorophenyl)-5-methylpyridin-4-ylamino)-N-isopropyl-1H-pyrazolo[4,3-b]pyridine-1-carboxamide]: the melting point stood at 292 °C.

Compound `CN(C)C(=O)Cn1ncc2nccc(Nc3ccnc(-c4cc(Cl)ccc4F)c3)c21` (as salt: TFA) [Example 38, 2-(7-(2-(5-chloro-2-fluorophenyl)pyridin-4-ylamino)-1H-pyrazolo[4,3-b]pyridin-1-yl)-N,N-dimethylacetamide] displayed a melting point of 293 °C.

In the case of `CNC(=O)n1ncc2nccc(Nc3cc(C)nc(-c4cc(Cl)ccc4F)c3)c21` (as salt: TFA) [Example 58, 7-(2-(5-chloro-2-fluorophenyl)-6-methylpyridin-4-ylamino)-N-methyl-1H-pyrazolo[4,3-b]pyridine-1-carboxamide], the melting point was determined as 248 °C.

For `CCNC(=O)n1ncc2nccc(Nc3ccnc(-c4cc(Cl)ccc4F)c3)c21` (as salt: TFA) [Example 29, 7-(2-(5-chloro-2-fluorophenyl)pyridin-4-ylamino)-N-ethyl-1H-pyrazolo[4,3-b]pyridine-1-carboxamide], the melting point was 256 °C.

The compound `Cc1ccc(F)c(-c2cc(Nc3ccnc4cnn(CC(C)(C)O)c34)ccn2)n1` (as salt: TFA) [Example 70, 1-(7-(3′-fluoro-6′-methyl-2,2′-bipyridin-4-ylamino)-1H-pyrazolo[4,3-b]pyridin-1-yl)-2-methylpropan-2-ol] returned a melting point of 135 to 136 °C.

`NC(=O)Cn1ncc2nccc(Nc3ccnc(-c4cc(Cl)ccc4F)c3)c21` (as salt: TFA) [Example 44, 2-(7-(2-(5-chloro-2-fluorophenyl)pyridin-4-ylamino)-1H-pyrazolo[4,3-b]pyridin-1-yl)acetamide] showed a melting point of 131 to 132 °C.

The compound `CNC(=O)n1ncc2nccc(Nc3cc(-c4cc(Cl)ccc4F)ncc3C)c21` (as salt: TFA) [Example 52, 7-(2-(5-chloro-2-fluorophenyl)-5-methylpyridin-4-ylamino)-N-methyl-1H-pyrazolo[4,3-b]pyridine-1-carboxamide] yielded a melting point of 135 °C.

Consider `Cc1ccc(F)c(-c2cc(Nc3ccnc4cn(C[C@H](O)CO)nc34)ccn2)n1` (as salt: HCl) [Example 69, (S)-3-(7-(3′-fluoro-6′-methyl-2,2′-bipyridin-4-ylamino)-2H-pyrazolo[4,3-b]pyridin-2-yl)propane-1,2-diol], for which the melting point is 182 to 184 °C.

In the case of `Cc1ccc(F)c(-c2cc(Nc3ccnc4cn(C(C)C)nc34)ccn2)n1` [Example 68, N-(3′-fluoro-6′-methyl-2,2′-bipyridin-4-yl)-2-isopropyl-2H-pyrazolo[4,3-b]pyridin-7-amine], the IC50 in data set [1] and in data set [2] was 1260 nM each time.

With `Cc1cnc(-c2cc(Cl)ccc2F)cc1Nc1ccnc2cn(C(C)(C)C(N)=O)nc12` [Example 55, 2-(7-(2-(5-chloro-2-fluorophenyl)-5-methylpyridin-4-ylamino)-2H-pyrazolo[4,3-b]pyridin-2-yl)-2-methylpropanamide], the IC50 in data set [1] was 79.4 nM; in data set [2], 631 nM.

Consider `CNC(=O)Cn1cc2nccc(Nc3cc(-c4cc(F)ccc4F)ncc3C)c2n1` [Example 158, 2-(7-(2-(2,5-difluorophenyl)-5-methylpyridin-4-ylamino)-2H-pyrazolo[4,3-b]pyridin-2-yl)-N-methylacetamide], for which the values for the half-inhibitory concentration (IC50) in data set [1] and in data set [2] were 6.31 nM and 126 nM, respectively.

Take `Cc1ccc(F)c(-c2cc(Nc3ccnc4cnn(C5CCS(=O)(=O)C5)c34)c(C)cn2)n1` (centres unmarked) [Example 157, N-[1-(1,1-dioxidotetrahydrothiophen-3-yl)-1H-pyrazolo[4,3-b]pyridin-7-yl]-3′-fluoro-5,6′-dimethyl-2,2′-bipyridin-4-amine]: the half-inhibitory concentration (IC50) in data set [1] is 25.1 nM; in data set [2] it was 398 nM.

The compound `CNC(=O)n1ncc2nccc(Nc3ccnc(-c4cc(Cl)ccc4F)c3)c21` (as salt: TFA) [Example 32, 7-(2-(5-chloro-2-fluorophenyl)pyridin-4-ylamino)-N-methyl-1H-pyrazolo[4,3-b]pyridine-1-carboxamide] showed a melting point of 256 °C.

With `NC(=O)Cn1cc2nccc(Nc3ccnc(-c4cc(F)ccc4F)c3)c2n1` [Example 87, 2-(7-(2-(2,5-difluorophenyl)pyridin-4-ylamino)-2H-pyrazolo[4,3-b]pyridin-2-yl)acetamide], the concentration for half-maximal inhibition (IC50) in data set [1] is 25.1 nM; in data set [2] it was 251 nM.

What is called IC50 is the point on the concentration scale where inhibition reaches its midpoint. Broadly, the melting point is the temperature, or range, at which the solid turns liquid.
